Experimental data as given in article PMC4591828, “Bacterial Rotary Export ATPases Are Allosterically Regulated by the Nucleotide Second Messenger Cyclic-di-GMP” (The Journal of Biological Chemistry, 2015).

Experiments:
[1] = system: T1, FliIHis; conditions: no cdG; 2 mM MgCl2, 10 mM KCl, pH 8.0
T1 construct: gene fliI

[2] = system: T2, FliIΔ1–18; conditions: no cdG; 2 mM MgCl2, 10 mM KCl, pH 8.0
T2 construct: gene fliI

[3] = system: T3, FliIΔ1–18; type: biochemical; conditions: ATP substrate, 2 mM MgCl2, pH 8.0; allosteric
T3 construct: gene fliI; N-terminal truncation lacking first 18 residues, N-terminal His6 tag (pETNdeM-11), expressed in E. coli

[4] = target: T4, HrcNHis (Pseudomonas syringae group genomosp. 3, UniProt Q887B5); test: pyruvate kinase/lactate dehydrogenase-linked ATPase assay; type: biochemical
T4 construct: gene sctN; full-length, N-terminal His6 tag (pETNdeM-11), expressed in E. coli

[5] = target: T1, FliIHis; test: as above; type: biochemical, Pseudomonas fluorescens; conditions: 1 mM ATP, 2 mM MgCl2, pH 8.0; allosteric

T4 sequence (Q887B5 whole entry): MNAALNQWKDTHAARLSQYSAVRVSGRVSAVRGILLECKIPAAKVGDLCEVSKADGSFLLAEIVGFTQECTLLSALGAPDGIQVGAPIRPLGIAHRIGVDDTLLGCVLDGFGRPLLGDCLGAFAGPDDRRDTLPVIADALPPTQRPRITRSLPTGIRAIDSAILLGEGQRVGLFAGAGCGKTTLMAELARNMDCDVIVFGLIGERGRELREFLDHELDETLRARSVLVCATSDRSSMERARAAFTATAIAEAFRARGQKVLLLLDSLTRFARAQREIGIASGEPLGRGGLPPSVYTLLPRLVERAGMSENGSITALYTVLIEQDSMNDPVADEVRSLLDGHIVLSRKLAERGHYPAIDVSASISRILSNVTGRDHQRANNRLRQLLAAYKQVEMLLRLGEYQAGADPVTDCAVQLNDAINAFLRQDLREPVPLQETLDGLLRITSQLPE

| Compound | Km [1] | Km [2] | IC50 [3] | IC50 [4] | IC50 [5] |
| --- | --- | --- | --- | --- | --- |
| Nc1ncnc2c1ncn2[C@@H]1O[C@H](COP(=O)(O)OP(=O)(O)OP(=O)(O)O)[C@@H](O)[C@H]1O [ATP] | 0.48 ± 0.03 µM | 0.45 ± 0.04 µM |  |  |  |
| Nc1nc2c(ncn2[C@@H]2O[C@@H]3COP(=O)(O)O[C@H]4[C@@H](O)[C@H](n5cnc6c(=O)[nH]c(N)nc65)O[C@@H]4COP(=O)(O)O[C@H]3[C@H]2O)c(=O)[nH]1 [cdG] |  |  | 48.8 ± 0.159 µM | 25.1 ± 1.14 µM | 36.7 ± 1.13 µM |
